4 compounds from US20080275058A1, “N-Substituted-1H-Quinoline-2,4-Diones, Preparation Method Thereof, And Pharmaceutical Composition Containing The Same” (KOREA RESEARCH INSTITUTE OF CHEMICAL TECHNOLOGY, priority 2005, published 2008) can be followed below.

The IC50 is the concentration that gives 50% inhibition. As usually defined, the TD50 is the dose at which the toxic effect under study appears in half of the subjects. The term melting point denotes the temperature, or range, at which the solid turns liquid.

Like-named read-outs stand apart in the source and are kept apart here.

The target in data set [1] is T1, 5-HT2a (Homo sapiens, UniProt P28223).
T1 construct: purchased Euroscreen/BioSignal Packard Inc
T1 sequence (P28223 whole entry): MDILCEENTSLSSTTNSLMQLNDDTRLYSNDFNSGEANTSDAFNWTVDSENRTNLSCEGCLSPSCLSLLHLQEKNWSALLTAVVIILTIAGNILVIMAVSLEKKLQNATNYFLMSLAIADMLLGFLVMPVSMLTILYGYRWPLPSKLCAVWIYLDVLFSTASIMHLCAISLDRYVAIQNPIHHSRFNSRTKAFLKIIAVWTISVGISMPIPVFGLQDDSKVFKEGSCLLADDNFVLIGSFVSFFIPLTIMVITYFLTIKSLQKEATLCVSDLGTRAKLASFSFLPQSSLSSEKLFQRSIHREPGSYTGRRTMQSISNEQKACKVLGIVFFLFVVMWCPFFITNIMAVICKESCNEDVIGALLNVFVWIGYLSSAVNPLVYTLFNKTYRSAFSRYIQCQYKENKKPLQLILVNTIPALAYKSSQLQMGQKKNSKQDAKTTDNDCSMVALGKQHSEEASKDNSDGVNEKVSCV
The experiment in a line: Radioligand binding, 5-HT2a ([3H]Ketanserin). As to conditions: Table 4; [3H]Ketanserin 1 nM; read-out: Binding affinity, IC50 (nM) 5-HT2a.

Data set [2] addresses D1 (Homo sapiens, UniProt P21728). The experiment in a line: Radioligand binding, dopamine D1. As to conditions: Table 4; read-out: Binding affinity, IC50 (nM) D1.
Data set [3] addresses T2, hD4.2 receptor (Homo sapiens, UniProt P21917, DEL265-296).
T2 construct: purchased BioSignal Packard Inc., Montreal, Canada
T2 sequence (P21917 with tags, fused parts or gaps DEL265-296): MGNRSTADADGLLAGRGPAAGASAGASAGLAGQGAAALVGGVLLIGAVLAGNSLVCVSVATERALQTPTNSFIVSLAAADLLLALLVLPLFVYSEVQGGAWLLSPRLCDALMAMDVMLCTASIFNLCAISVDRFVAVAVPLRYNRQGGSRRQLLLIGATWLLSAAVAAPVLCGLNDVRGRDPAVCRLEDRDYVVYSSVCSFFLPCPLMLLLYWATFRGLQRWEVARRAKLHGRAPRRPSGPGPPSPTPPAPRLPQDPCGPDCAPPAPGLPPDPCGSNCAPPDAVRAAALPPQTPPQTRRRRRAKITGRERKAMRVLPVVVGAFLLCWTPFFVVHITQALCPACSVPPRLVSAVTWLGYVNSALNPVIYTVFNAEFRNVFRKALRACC
The experiment in a line: Radioligand binding, dopamine D4 ([3H]YM-09151-2). As to conditions: Table 4; [3H]YM-09151-2 0.06 nM; read-out: Binding affinity, IC50 (nM) D4. The essentials:
(§1)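 IC50 values come from nonlinear fits of three displacement experiments, each using 7-8 test concentrations in duplicate. D2L and D3 membranes were labelled with 1 nM [3H]spiperone, and D4.2 with 0.06 nM [3H]YM-09151-2. All assays used pH 7.4 Tris buffers, with the D3 buffer adding 120 mM NaCl, KCl and CaCl2.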

The target in data set [4] is T3, hD2L (Homo sapiens, UniProt P14416).
T3 construct: purchased BioSignal Packard Inc., Montreal, Canada
T3 sequence (P14416 whole entry): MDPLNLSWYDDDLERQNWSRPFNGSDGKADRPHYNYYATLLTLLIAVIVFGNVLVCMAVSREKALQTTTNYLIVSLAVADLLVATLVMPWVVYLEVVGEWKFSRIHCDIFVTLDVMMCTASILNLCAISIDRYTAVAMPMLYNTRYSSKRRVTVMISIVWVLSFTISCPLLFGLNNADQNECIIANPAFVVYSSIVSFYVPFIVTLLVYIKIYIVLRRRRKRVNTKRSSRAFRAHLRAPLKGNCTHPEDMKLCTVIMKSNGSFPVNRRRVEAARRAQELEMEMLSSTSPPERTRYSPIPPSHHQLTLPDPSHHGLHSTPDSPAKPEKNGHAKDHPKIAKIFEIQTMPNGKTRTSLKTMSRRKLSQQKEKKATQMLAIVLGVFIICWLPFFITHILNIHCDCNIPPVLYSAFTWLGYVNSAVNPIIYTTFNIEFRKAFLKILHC
The experiment in a line: Radioligand binding, dopamine D2 ([3H]spiperone). As to conditions: Table 4; [3H]spiperone 1 nM; read-out: Binding affinity, IC50 (nM) D2. In outline: as §1

For data set [5], the target named is T4, 5-HT2c (Homo sapiens, UniProt P28335).
T4 construct: purchased Euroscreen/BioSignal Packard Inc
T4 sequence (P28335 33-458): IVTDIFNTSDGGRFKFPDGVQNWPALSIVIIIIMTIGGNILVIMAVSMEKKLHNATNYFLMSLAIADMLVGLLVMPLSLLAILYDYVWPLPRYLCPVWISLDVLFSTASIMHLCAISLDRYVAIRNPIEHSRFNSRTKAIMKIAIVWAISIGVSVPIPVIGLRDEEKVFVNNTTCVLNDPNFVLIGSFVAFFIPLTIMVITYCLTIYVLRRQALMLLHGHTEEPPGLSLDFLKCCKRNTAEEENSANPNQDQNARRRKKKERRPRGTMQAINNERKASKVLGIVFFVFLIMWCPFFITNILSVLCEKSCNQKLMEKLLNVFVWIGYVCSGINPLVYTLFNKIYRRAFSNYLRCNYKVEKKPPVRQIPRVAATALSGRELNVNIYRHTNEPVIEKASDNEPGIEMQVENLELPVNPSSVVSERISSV
The experiment in a line: Radioligand binding, 5-HT2c ([3H]Mesulergine). Conditions: Table 4; [3H]Mesulergine 1 nM; read-out: Binding affinity, IC50 (nM) 5-HT2c.

Data set [6] concerns mice. The experiment in a line: Rotarod deficit in mice. It counts as in vivo, mouse. As for the experimental part: (§2) The mouse was placed on a 1 inch diameter knurled plastic rod rotating at 6 rpm (Ugo-Basile, Milano, Italy), and the rotarod deficit (%) was obtained by counting the number of animals fallen from the rotating rod within 1 min [Dunham et al., 1957] at 60, 90 and 120 min after the injection of the compound according to the invention(200, 300 or 400 ? ). […] The compounds of the examples were suspended in 3% Tween 80 solution, and were administered (p.o.) 60 min before the testing.

Data set [7] can be described thus: Rotarod deficit in mice. Conditions: mouse, in vivo, po, unit printed as image, read-out: TD50 (median neurotoxic dose). Format: in vivo, mouse. As to the method: as §2
In general terms: In the rotarod test animals must keep their balance on a rotating rod.

Data set [8] deals with T5, 5-HT7 (Homo sapiens, UniProt P34969).
T5 construct: purchased Euroscreen/BioSignal Packard Inc
T5 sequence (P34969 whole entry): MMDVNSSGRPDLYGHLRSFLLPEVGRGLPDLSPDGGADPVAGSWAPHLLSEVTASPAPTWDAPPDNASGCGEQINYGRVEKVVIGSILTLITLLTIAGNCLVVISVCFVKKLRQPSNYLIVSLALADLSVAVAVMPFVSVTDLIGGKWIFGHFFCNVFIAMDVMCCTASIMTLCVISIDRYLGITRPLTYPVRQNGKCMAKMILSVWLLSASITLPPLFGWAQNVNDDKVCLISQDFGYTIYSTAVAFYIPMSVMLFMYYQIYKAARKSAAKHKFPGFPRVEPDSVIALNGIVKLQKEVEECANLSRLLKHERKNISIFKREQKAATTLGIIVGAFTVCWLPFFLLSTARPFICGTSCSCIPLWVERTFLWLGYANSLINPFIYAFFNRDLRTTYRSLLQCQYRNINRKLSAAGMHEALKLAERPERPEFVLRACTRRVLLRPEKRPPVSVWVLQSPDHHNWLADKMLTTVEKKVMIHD
The experiment in a line: Radioligand binding, 5-HT7 ([3H]LSD). Conditions: Table 4; [3H]LSD 3 nM; read-out: Binding affinity, IC50 (nM) 5-HT7.

For data set [9], the target named is T6, Human serotonin 5-HT6 receptor (Homo sapiens, UniProt P50406).
T6 construct: made in house; host or cells: insect Sf21 cells (baculovirus vector BacPAK8)
T6 sequence (P50406 whole entry): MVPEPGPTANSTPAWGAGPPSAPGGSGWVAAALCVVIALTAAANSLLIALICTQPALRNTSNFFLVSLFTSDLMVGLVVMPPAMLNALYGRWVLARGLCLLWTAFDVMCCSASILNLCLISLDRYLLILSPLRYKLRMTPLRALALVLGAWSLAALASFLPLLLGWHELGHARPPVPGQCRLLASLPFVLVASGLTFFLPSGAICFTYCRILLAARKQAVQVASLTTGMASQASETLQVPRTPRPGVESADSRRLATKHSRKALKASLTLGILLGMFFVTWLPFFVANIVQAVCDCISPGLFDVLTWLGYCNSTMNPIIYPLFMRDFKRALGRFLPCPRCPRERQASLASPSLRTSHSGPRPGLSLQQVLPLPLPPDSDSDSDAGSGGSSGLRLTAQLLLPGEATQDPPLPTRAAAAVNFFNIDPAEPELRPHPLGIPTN
The experiment in a line: [3H]LSD binding assay on cloned 5-HT6 receptor membranes.

The target of data set [10] is T7, hD3 (Homo sapiens, UniProt P35462).
T7 construct: purchased BioSignal Packard Inc., Montreal, Canada
T7 sequence (P35462 whole entry): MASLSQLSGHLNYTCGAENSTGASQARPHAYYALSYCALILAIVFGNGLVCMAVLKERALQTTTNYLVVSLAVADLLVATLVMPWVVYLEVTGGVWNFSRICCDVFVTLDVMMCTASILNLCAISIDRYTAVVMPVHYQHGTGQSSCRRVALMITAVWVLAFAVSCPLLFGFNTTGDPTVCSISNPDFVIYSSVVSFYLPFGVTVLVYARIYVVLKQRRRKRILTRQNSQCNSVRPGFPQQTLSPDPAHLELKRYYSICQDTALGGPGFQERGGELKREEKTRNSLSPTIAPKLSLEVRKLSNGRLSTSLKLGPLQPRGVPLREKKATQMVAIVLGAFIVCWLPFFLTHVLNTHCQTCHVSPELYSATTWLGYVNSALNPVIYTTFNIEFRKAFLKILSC
The experiment in a line: Radioligand binding, dopamine D3 ([3H]spiperone). Conditions: Table 4; [3H]spiperone 1 nM; read-out: Binding affinity, IC50 (nM) D3. The essentials:
as §1

For data set [11], the target named is T8, 5-HT1a (Homo sapiens, UniProt P08908).
T8 construct: purchased Euroscreen/BioSignal Packard Inc
T8 sequence (P08908 1-422): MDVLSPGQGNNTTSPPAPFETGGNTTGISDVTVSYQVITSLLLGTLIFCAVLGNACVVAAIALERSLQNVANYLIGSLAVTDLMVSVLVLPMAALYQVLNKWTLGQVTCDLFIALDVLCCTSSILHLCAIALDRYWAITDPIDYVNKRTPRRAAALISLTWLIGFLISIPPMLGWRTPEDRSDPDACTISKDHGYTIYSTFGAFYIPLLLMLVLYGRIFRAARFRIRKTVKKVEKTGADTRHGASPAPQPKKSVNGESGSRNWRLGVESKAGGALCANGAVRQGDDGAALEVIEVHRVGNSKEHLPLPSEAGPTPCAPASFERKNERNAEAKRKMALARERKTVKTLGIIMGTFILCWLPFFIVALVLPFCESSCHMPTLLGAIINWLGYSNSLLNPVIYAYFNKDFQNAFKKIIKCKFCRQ
The experiment in a line: Radioligand binding, 5-HT1a ([3H]8-OH-DPAT). As to conditions: Table 4; [3H]8-OH-DPAT 0.5 nM; read-out: Binding affinity, IC50 (nM) 5-HT1a. In outline:
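Membranes bearing the receptor, bought in; radioligand displacement run per supplier protocol.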

Setting [12] is: Table 2, 1.87 nM [3H]LSD, 37 C, 60 min, read-out: IC50 (nM), binding affinity to the 5-HT6 receptor.
Setting [13] is: Table 4, read-out: Binding affinity, IC50 (nM) 5-HT6.

D1, sequence (P21728 whole entry): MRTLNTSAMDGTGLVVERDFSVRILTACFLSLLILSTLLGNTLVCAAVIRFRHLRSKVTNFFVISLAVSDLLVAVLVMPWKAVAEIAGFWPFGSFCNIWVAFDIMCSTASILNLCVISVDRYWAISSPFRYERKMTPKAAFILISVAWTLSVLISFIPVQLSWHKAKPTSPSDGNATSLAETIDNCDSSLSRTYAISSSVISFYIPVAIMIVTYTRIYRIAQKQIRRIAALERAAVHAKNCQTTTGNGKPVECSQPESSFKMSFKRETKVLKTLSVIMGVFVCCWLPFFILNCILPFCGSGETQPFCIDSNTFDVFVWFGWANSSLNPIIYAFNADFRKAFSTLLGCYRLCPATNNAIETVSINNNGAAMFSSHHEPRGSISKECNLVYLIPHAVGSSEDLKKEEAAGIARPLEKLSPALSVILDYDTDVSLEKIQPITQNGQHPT

With `COc1ccc(C2(C)C(=O)c3c(N4CCN(C)CC4)cc(Cl)cc3N(Cc3ccccc3)C2=O)cc1` (stereo not shown) [Example 1, 1-Benzyl-7-chloro-3-(4-methoxy-phenyl)-3-methyl-5-(4-methyl-piperazin-1yl)-1H-quinoline-2,4-dione], the melting point fell in the range of 66 to 67 °C. Further, the IC50 in data set [1] was 1120 nM. Further, the IC50 in [2] was 174 nM. For the same compound, the IC50 in data set [3] is 8020 nM. In addition, the IC50 in data set [4] was more than 10000 nM. The IC50 in [5] was more than 10000 nM. The “Rotarod deficit (%)” value in data set [6] (200 p.o. (dose unit not given)) is on record as 0%. Also, the “Rotarod deficit (%)” value in data set [6] (300 p.o. (dose unit not given)) was 0%. The “Rotarod deficit (%)” value in data set [6] (400 p.o. (dose unit not given)) came to 0%. In addition, in data set [7], the TD50 at 120 min is more than 400 mg/kg. Further, the IC50 in data set [8] is 7490 nM. Moreover, in data set [9] (setting [12]), the IC50 turned out to be 1.9 nM. In addition, in data set [9] (setting [13]), the IC50 was 1.9 nM. Also, the “binding affinity at 5-HT6 receptor labeled by [3H]LSD, in words” value in data set [9] (comment on Table 2) was “significant affinities”. Besides, the IC50 in [10] stood at 2280 nM. Moreover, the IC50 in [11] was found to be 4410 nM.

As to `CN1CCN(c2cc(Cl)cc3c2C(=O)C(C)(c2ccc(O)cc2)C(=O)N3Cc2ccccc2)CC1` (stereo not shown) [Example 2, 1-Benzyl-7-chloro-3-(4-hydroxy-phenyl)-3-methyl-5-(4-methyl-piperazin-1-yl)-1H-quinoline-2,4-dione], the melting point lay in the range of 258 to 259 °C. Further, the IC50 in [1] worked out at 2620 nM. For the same compound, the IC50 in data set [2] came out at 4970 nM. Besides, the IC50 in [3] was more than 10000 nM. In addition, in data set [4], the IC50 was more than 10000 nM. In addition, the IC50 in [5] turned out to be 487 nM. The “Rotarod deficit (%)” value in [6] (200 p.o. (dose unit not given)) worked out at 0%. The “Rotarod deficit (%)” value in [6] (300 p.o. (dose unit not given)) turned out to be 0%. Besides, in data set [6] (400 p.o. (dose unit not given)), the “Rotarod deficit (%)” value worked out at 0%. The TD50 at 120 min in [7] is more than 400 mg/kg. In data set [8], the IC50 is 920 nM. In data set [9] (setting [12]), the IC50 was 2.5 nM. In addition, the IC50 in data set [9] (setting [13]) was found to be 2.5 nM. Also, in [10], the IC50 worked out at 589 nM. Moreover, the IC50 in data set [11] was more than 10000 nM.

`CN1CCN(c2cc(Cl)cc3c2C(=O)C(C)(c2ccc([N+](=O)[O-])cc2)C(=O)N3Cc2ccccc2)CC1` (stereo not shown) [Example 3, 1-Benzyl-7-chloro-3-methyl-5-(4-methyl-piperazin-1-yl)-3-(4-nitro-phenyl)-1H-quinolin-2,4-dione] gave a melting point of 179 to 180 °C. Moreover, in data set [1], the half-inhibitory concentration (IC50) worked out at 1540 nM. Besides, in data set [2], the IC50 is 814 nM. Moreover, the IC50 in [3] was more than 10000 nM. In data set [4], the IC50 was more than 10000 nM. Further, the IC50 in [5] is more than 10000 nM. In addition, the “Rotarod deficit (%)” value in [6] (200 p.o. (dose unit not given)) was 0%. In addition, the “Rotarod deficit (%)” value in data set [6] (300 p.o. (dose unit not given)) is 0%. For the same compound, the “Rotarod deficit (%)” value in [6] (400 p.o. (dose unit not given)) is listed as 0%. The TD50 at 120 min in data set [7] was more than 400 mg/kg. For the same compound, the IC50 in [8] worked out at 4570 nM. In addition, the IC50 in data set [9] (setting [12]) turned out to be 4.7 nM. The IC50 in [9] (setting [13]) worked out at 4.7 nM. Besides, in [10], the IC50 was found to be 360 nM. In data set [11], the IC50 was 5730 nM.

`COc1ccc(C2(C)C(=O)c3c(N4CCN(C)CC4)cc(Cl)cc3N(Cc3cccc(N)c3)C2=O)cc1` (stereo not shown) [Example 9, 1-(3-Amino-benzyl)-7-chloro-3-(4-methoxy-phenyl)-3-methyl-5-(4-methyl-piperazin-1-yl)-1H-quinoline-2,4-dione] displayed a melting point of 90 to 93 °C. In [1], the IC50 is more than 10000 nM. Besides, the IC50 in data set [2] is more than 10000 nM. The 50% inhibitory concentration (IC50) in data set [3] is more than 10000 nM. Also, in data set [4], the IC50 is more than 10000 nM. In data set [5], the IC50 was more than 10000 nM. The “Rotarod deficit (%)” value in [6] (200 p.o. (dose unit not given)) was 0%. Further, the “Rotarod deficit (%)” value in data set [6] (300 p.o. (dose unit not given)) is 0%. Besides, the “Rotarod deficit (%)” value in data set [6] (400 p.o. (dose unit not given)) is 0%. The TD50 at 120 min in data set [7] is more than 400 mg/kg. The IC50 in data set [8] was more than 10000 nM. Also, the IC50 in [9] (setting [12]) was found to be 5.2 nM. In [9] (setting [13]), the IC50 stood at 5.2 nM. Besides, the IC50 in data set [10] turned out to be 821 nM. Further, the IC50 in data set [11] was more than 10000 nM.
